Results as given in ChEMBL document CHEMBL3507680, “University of Dundee, Gates Library screen for HepG2 cell viability”.

Test: Human HepG2 cell viability assay in 384 well format
Type: toxicity, cell-based
Parameters: dose 125 nL, time 70.5 hour; concentration not given beside the values
Details: HepG2 cells, read-out: Inhibition

In order of rising cytotoxicity at 70.5 h:
1. CCS(=O)(=O)NC(CCSC)C(=O)Nc1cccc(C)c1C (stereo not drawn)  -83.4%
2. COCCC(=O)N1CCC2(CCCN2Cc2ccccc2)C1 (stereo not drawn)  -52.9%
3. O=C(NCCN1CCOCC1)c1nc2ccccc2c(=O)[nH]1  -23.1%
4. Fc1ccccc1NCc1nc2n(n1)CCCCC2  -19.3%
5. CC(Nc1ncnc2c1NC(=O)CN2)c1ccc2c(c1)OCO2 (stereo not drawn)  -18.5%
6. CC(=O)Nc1ccc(OCc2noc(C(=O)N3CCCCC3)n2)cc1  -18.1%
7. Cc1ncsc1CCN(C)Cc1cc2n(n1)CCN(Cc1ccco1)C2  -16.9%
8. COc1ncccc1NC(=O)N1CCCC1c1cc(C)no1 (stereo not drawn)  -16.3%
9. CN(C)c1cc(C(=O)NCc2cccnc2-n2cncn2)ccn1  -16.1%
10. COC(C)(C)CNC(=O)N1CCCC1c1c(C)n[nH]c1C (stereo not drawn)  -13.9%
11. O=C1CC2(CCN(Cc3ccc(-c4ccn[nH]4)s3)CC2)CN1  -13.8%
12. Cn1cc(CN2C[C@@H]3COC[C@]3(CNC(=O)c3ccccc3)C2)cn1  -13.5%
13. CC(C)c1nc(C2CCCN2CCCc2nc3ccccc3o2)no1 (stereo not drawn)  -12.9%
14. O=C(c1ccccn1)N1CCC2(CC1)CN(c1cncnc1)C(=O)CO2  -12.2%
15. COc1ccc(CN2Cc3[nH]nc(C(=O)N(C)C)c3C2)cc1  -11.8%
16. Cc1noc([C@@H]2C[C@@H]3CCN(c4nnc(C)s4)C[C@H]3O2)n1  -11.6%
17. CC(C)c1cc(N2CCN(c3ccc(O)cc3)CC2)n2nccc2n1  -11.5%
18. NC(=O)C1CCCN1Cc1cccc(NC(=O)c2ccsc2)c1 (stereo not drawn)  -11.3%
19. Cc1oc(-c2ccccc2)nc1CC(=O)NC1=NCCS1  -11%
20. CN1CCC(CN2CCC3(CCCN(Cc4ccoc4)C3)C2=O)CC1 (stereo not drawn)  -10.7%
21. Cc1cnn(CCNCc2nnc(-c3ccc(F)cc3)o2)c1  -10.4%
22. COc1ccc(-c2ccnc3nc(N4CCCC4)[nH]c(=O)c23)cc1OC  -9.78%
23. Cc1nccc(-c2cccc(NCC(=O)N3CCCC(C)C3)c2)n1 (stereo not drawn)  -9.5%
24. CCC(CC)(CCO)CNC(=O)c1ccon1  -8.6%
25. CCNC(=O)c1ncn2c1CN(C)S(=O)(=O)c1ccccc1-2  -8.36%
26. COCC(=O)N1CC[C@H]2C[C@H](c3nnc(C4CC4)o3)O[C@@H]2C1  -8.34%
27. CN1CCCN(C(=O)c2ccc3c(c2)nc(N2CCOCC2)n3C)CC1  -8.33%
28. COCCN1CCC(c2nc3c([nH]2)CCCNC3=O)CC1  -8.24%
29. CN(C)CCN1CCO[C@H]2CN(Cc3cnn(C)c3)C[C@H]21  -7.82%
30. Cc1c(C(=O)N2CCC3(CCCNC3=O)C2)sc2nc[nH]c(=O)c12 (stereo not drawn)  -7.46%
31. CN(C)c1nc(N2CCCC2)nc2c1CCN(C(=O)c1ccco1)CC2  -7.2%
32. O=C1CC(c2ccccc2F)c2c(n(C3CCCC3)[nH]c2=O)N1 (stereo not drawn)  -7.2%
33. CC1=Nc2c(c(=O)[nH]n2C2CCOCC2)C(c2cccc(O)c2)S1 (stereo not drawn)  -7.06%
34. O=C(Cc1ccccc1F)NCCN1CCOCC1  -6.95%
35. COc1ccc(-c2n[nH]c(C)c2CC(=O)N2CCOCC2)cc1  -6.85%
36. CC(=O)N1CCc2[nH]c(=O)ccc2C1  -6.79%
37. CC(C)(C)C(=O)N1CCC(c2noc(C3CCC(=O)N3)n2)CC1 (stereo not drawn)  -6.7%
38. O=C(NCCNCC1CNc2ccnn2C1)c1ccc(F)cc1 (stereo not drawn)  -6.67%
39. Cc1ccc(CN2CC[C@H]3NC(=O)CC[C@@H]32)o1  -6.53%
40. c1ccc(C2CCCN(Cc3cc4n(n3)CCNC4)CC2)cc1 (stereo not drawn)  -6.51%
41. Cc1nc(CNCC2COCc3c(-c4ccoc4)nnn3C2)cs1 (stereo not drawn)  -6.23%
42. Cc1cccc(OC2CCN(c3ncc(C#N)cc3Cl)CC2)n1  -6.22%
43. Cc1nc(N2CCCC2C(=O)NCc2ccsc2)nc2ccccc12 (stereo not drawn)  -6.09%
44. CCOC(=O)CCN(Cc1cccnc1)C(=O)c1cc(Cl)c[nH]1  -6.02%
45. COc1ccc(CC(C)Nc2cccc(SC)c2)cc1 (stereo not drawn)  -5.87%
46. Cc1c(C(=O)NC2(C#N)CCSC2)nnn1-c1ccccc1Cl (stereo not drawn)  -5.68%
47. COCCCNC(=O)CN(C)C(=O)c1ccc(OC)cc1O  -5.57%
48. O=S(=O)(Cc1ccccc1Cl)NCCCN1CCCC1  -5.39%
49. Cn1cc(CN2C[C@@H]3COC[C@]3(COCC3CC3)C2)cn1  -5.3%
50. CC(C)Cc1nc(C[S+]([O-])CC(=O)NCc2ccccc2)no1 (stereo not drawn)  -5.17%
51. CC(=O)Nc1nc(C(=O)NCc2ccc(OC(C)C)nc2)cs1  -5.15%
52. CC(=O)N1CCC(C)(c2nc(C)no2)CC1  -5%
53. CCOCCCNC(=O)c1nnn(Cc2ccccc2)c1OC  -4.93%
54. Cc1cccc(-c2nc(CNC3CCc4ncnn4C3)no2)c1 (stereo not drawn)  -4.91%
55. COc1cccc(S(=O)(=O)N2CCN(C)[C@@H]3CS(=O)(=O)C[C@@H]32)c1  -4.74%
56. COCCN(C)CCN1CC2(CCN(C3CCSC3)CC2)OC1=O (stereo not drawn)  -4.49%
57. CCOC(C)c1nc(Cn2cc(C(=O)NC)ccc2=O)cs1 (stereo not drawn)  -4.29%
58. CCC[C@H]1CN(CCCO)C[C@@H]1NC(=O)Cn1cc(C)cn1  -4.28%
59. O=C(O)c1cc(-c2cc[nH]n2)cc(S(=O)(=O)N2CCCCCC2)c1  -4.16%
60. O=C(CN1CCOC(Cn2cccn2)C1)NCCc1cccs1 (stereo not drawn)  -4.13%
61. CC(C)NC(=O)N1CCC2(CC1)NC(=O)[C@H]1CN(C(=O)N(C)C)C[C@H]12  -3.94%
62. FC(F)(F)c1cccc(C2(CNCc3cc[nH]c3)CCOCC2)c1  -3.76%
63. Fc1cccc(CN2C[C@@H]3CN(c4ncccn4)C[C@@H]3C2)c1  -3.5%
64. COc1ccc(Cl)cc1C(=O)N(C)Cc1cc(C)on1  -3.26%
65. CC(C)c1cc(C(=O)N2CCN(CC3CC3)[C@@H]3CS(=O)(=O)C[C@@H]32)no1  -3.21%
66. Cc1noc(CCCC(=O)NCC(c2ccco2)N2CCCCC2)n1 (stereo not drawn)  -3%
67. O=C(NCc1ccc(Br)cc1F)C1(O)CCSCC1  -2.81%
68. Cc1[nH]c(-c2ccccc2)nc1C(=O)N1CCC2(CCCO2)CC1  -2.81%
69. CC(C)c1cc(C(=O)N2Cc3ccccc3CC2C(=O)O)nn1C (stereo not drawn)  -2.03%
70. COc1ccc(Cc2nnc(SC)o2)cc1OC  -2.03%
71. Cc1cc(-c2nccs2)nc(C2CCN(Cc3ccc(F)cc3)CC2)n1  -2%
72. Cc1noc([C@@H]2C[C@H](NC(=O)Nc3ccccc3)CN2C)n1  -1.94%
73. O=C1NCC[C@]12CN(Cc1ccncc1)C[C@H]2c1ccccc1  -1.85%
74. CN(CCc1ccncc1)Cc1c(C2CCCC2)[nH]c2ncccc12  -1.56%
75. CCc1ccc(CN2C[C@@H](C(=O)O)[C@H](c3ccccc3OC)C2)o1  -1.56%
76. CN(C)CCCNC(=O)c1ccnc(OCc2ccccc2)c1  -1.38%
77. CCOc1ccc(CN2CC[C@](C)(O)C(C)(C)C2)cn1  -1.38%
78. CC(C)n1ccnc1CN1CCCN(C(=O)c2cnc[nH]2)CC1  -1.35%
79. Cc1cccc2nc(C(=O)N3CCCC[C@]4(C)NC(=O)CC[C@H]34)cn12  -0.96%
80. O=C(c1ccnnc1)N1C[C@@H]2CC[C@H](Oc3cccc(F)c3)[C@@H]2C1  -0.575%
81. COc1ccccc1C1(C(=O)N2CCCC(c3cc(C)[nH]n3)C2)CC1 (stereo not drawn)  -0.122%
82. CC(NCc1ccc(F)cc1)c1ccc2[nH]c(=O)[nH]c2c1 (stereo not drawn)  0.625%
83. O=C(Cc1cccs1)N1CCOC(c2cccc(O)c2)C1 (stereo not drawn)  0.631%
84. CCn1c(CN2CCOC(Cn3cncn3)C2)nc2cc(F)ccc21 (stereo not drawn)  0.647%
85. Cn1cnnc1CN1CCC2(CCCN(C3CCCC3)C2=O)C1 (stereo not drawn)  1.29%
86. CNS(=O)(=O)CCCN1CCCC1c1cc(C)on1 (stereo not drawn)  1.72%
87. CCN1C(=O)C2(CCOCC2)c2cc(NC(=O)c3cnccn3)ccc21  1.85%
88. CCN1CCCC(O)(CN(C)Cc2c(C)nn(C)c2C)C1 (stereo not drawn)  2.33%
89. CCc1nnc2n1CCN(CC(O)CN1CCC(C)CC1)C2 (stereo not drawn)  2.99%
90. O=C1CCC(=O)N1CCN1CCOC(c2ccsc2)C1 (stereo not drawn)  3.03%
91. O=C(Cc1ccc(F)c(Br)c1)NC1CCN(CC(F)F)CC1  3.07%
92. Cc1ncsc1CNc1ccn(Cc2ccccc2)n1  6.63%
93. COCCn1ccnc1-c1[nH]cnc1C  6.67%
94. Cn1cccc1CNC(=O)N(CCO)C1CCCc2ccccc21 (stereo not drawn)  7.35%
95. CN1CCC(Cc2noc(-c3cccc(OCC(N)=O)c3)n2)CC1  7.49%
96. COc1c(Br)cccc1CCNC(=O)c1ncoc1C  9.9%
97. CC(C)N(Cc1cnn(C)c1)CC1CCCN(S(C)(=O)=O)C1 (stereo not drawn)  10.1%
98. CC(C)(O)CCc1cccc(C(=O)NCC2CN(S(C)(=O)=O)CCO2)c1 (stereo not drawn)  10.1%
99. Cc1nc(N2C[C@@H](CN3CCCN(C)CC3)[C@@H](CO)C2)c2ccsc2n1  11.6%
100. c1cnnc(NCC2CN(CCn3cncn3)CCO2)c1 (stereo not drawn)  11.7%
101. COCCN1CCC2(CC1)CN(C(=O)c1ccco1)CCO2  12.3%
102. O=C1CCC2(CCN(Cc3ccc(F)cc3Cl)CC2)CN1CCO  12.9%
103. c1cnc(NC[C@H]2OC[C@@H]3CCN(Cc4ccncc4)C[C@@H]32)nc1  17.4%
104. CC(C)c1n[nH]c(C2CN(C(=O)c3cnccn3)CCO2)n1 (stereo not drawn)  18.8%
105. CN(C(=O)Cc1ccc2c(c1)OCCO2)C1CCCC1  19.8%
106. CC(C)(C)c1n[nH]c(C2CN(C(=O)c3csnn3)CCO2)n1 (stereo not drawn)  22.6%
107. O=S(=O)(Nc1ccc(Oc2ccc3c(c2)OCO3)cc1)N1CCCCC1  23%
108. COc1ccc(-c2noc(C(N)CCSC)n2)cc1 (stereo not drawn)  23.9%
109. Cn1cnn(Cc2c(F)cccc2Br)c1=O  24.5%
110. COc1cc(CNc2cc(N3CCCC3CO)ncn2)ccn1 (stereo not drawn)  24.7%
111. COc1ccc2c(c1)C1(CCNCC1)CC2NC1CC1 (stereo not drawn)  27.2%
112. NC(=O)c1ccc(C2CN(Cc3ccc(F)cc3)CCO2)nc1 (stereo not drawn)  27.6%
113. O=C(c1cnn2c1OCCC2)N1CCC(Cc2ccccc2)CC1  29.6%
